{"source": "PubChem BioAssay AID1645868", "about": "(Buhrlage Lab, Dana-Farber Cancer Institute and Novartis …, 2021)", "note": "Calls of active or inactive are those of the source.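 The calls were made as follows: active = maximal percent inhibition of the deubiquitinase OTUD3 of at least 30% across the tested doses; inactive = the rest.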", "data": [{"biological_target": "OTU domain-containing protein 3 (Homo sapiens) (UniProt Q5T2D3)", "sequence (Q5T2D3 whole entry, looked up, the tested form may be a part)": "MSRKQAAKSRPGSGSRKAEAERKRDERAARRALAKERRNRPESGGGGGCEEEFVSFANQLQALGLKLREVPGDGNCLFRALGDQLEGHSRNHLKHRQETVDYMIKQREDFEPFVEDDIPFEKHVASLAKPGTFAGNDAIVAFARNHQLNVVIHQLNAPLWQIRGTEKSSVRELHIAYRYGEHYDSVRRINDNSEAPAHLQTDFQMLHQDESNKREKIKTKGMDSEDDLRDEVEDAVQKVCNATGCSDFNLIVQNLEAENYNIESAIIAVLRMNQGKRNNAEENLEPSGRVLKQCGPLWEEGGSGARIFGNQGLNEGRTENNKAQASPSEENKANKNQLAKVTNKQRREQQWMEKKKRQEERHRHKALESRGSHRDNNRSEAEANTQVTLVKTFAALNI", "test": "Validation of screening hits, potency titration, in vitro enzymatic, OTU domain-containing protein 3 DUB inhibitors (AID 1645868)", "details": "purified OTUD3, ubiquitin-rhodamine cleavage fluorescence, 2 h", "values": [{"smiles": "O=C(CSc1nnc(CNC(=O)c2ccccc2F)o1)Nc1ccc(OC(F)(F)F)cc1", "IC50": "29.6 µM"}, {"smiles": "FC(F)(F)c1cccc(Nc2nnc(-c3cccnc3)s2)c1", "IC50": "> 50 µM (inactive)"}, {"smiles": "O=C(Cn1c(=O)n(Cc2ccc3c(c2)OCO3)c(=O)c2ncccc21)c1ccccc1", "IC50": "> 50 µM (inactive)"}, {"smiles": "O=C(COc1ccc2c(-c3ccccc3)cc(=O)oc2c1)Nc1cccnc1", "IC50": "21.5 µM"}, {"smiles": "Cc1ccc([N+](=O)[O-])cc1S(=O)(=O)Nc1cc2sc(=O)oc2c2ccccc12", "IC50": "35.9 µM"}, {"smiles": "CC(Nc1ncnc2c1sc1nc(N3CCOCC3)c3c(c12)CCC3)c1ccccc1", "note": "(centres undefined)", "IC50": "> 50 µM (inactive)"}, {"smiles": "Cc1cccc(NC(=O)Cn2c(-c3cnccn3)nc(C)c(C)c2=O)c1C", "IC50": "> 50 µM (inactive)"}, {"smiles": "Cc1cccc(NC(=O)CN2C(=O)CC(c3ccccc3)S(=O)(=O)c3ccccc32)c1C", "note": "(centres undefined)", "IC50": "22.1 µM"}, {"smiles": "CC1(C)Cc2c(sc3nc(Cc4ccccc4)nc(SCC(=O)Nc4ccccc4)c23)CO1", "IC50": "6.75 µM"}, {"smiles": "COc1cccc2c1OCC(NS(=O)(=O)c1cc(C)ccc1C)C2", "note": "(centres undefined)", "IC50": "> 50 µM (inactive)"}, {"smiles": "Cc1noc(C)c1S(=O)(=O)Nc1ccc(C(=O)Nc2ccc3c(c2)OCCO3)cc1", "IC50": "> 50 µM (inactive)"}, {"smiles": "Cc1nn(-c2cc(N3CCOCC3)ncn2)c(C)c1CCC(=O)Nc1ccc(C(C)C)cc1", "IC50": "33.3 µM"}, {"smiles": "N#Cc1ccc(Cl)cc1NC(=O)COc1cccnc1[N+](=O)[O-]", "IC50": "> 50 µM (inactive)"}, {"smiles": "Fc1ccc(CN2CCc3nc4cccnc4cc3C2)cc1", "IC50": "> 50 µM (inactive)"}, {"smiles": "CCOc1ccc(C2=NCCNC3=C2C(c2ccccc2)N(c2ccccc2)C3=O)cc1", "note": "(centres undefined)", "IC50": "> 50 µM (inactive)"}, {"smiles": "O=C(Nc1ccc(-c2cn3ccccc3n2)cc1)C1C=C2C=C(Br)C=CC2OC1=O", "note": "(centres undefined)", "IC50": "> 50 µM (inactive)"}, {"smiles": "COc1ncccc1CN1CCn2c(Cn3cccn3)cnc2C1C", "note": "(centres undefined)", "IC50": "> 50 µM (inactive)"}, {"smiles": "c1coc(CNc2nc3ccccc3n3nnnc23)c1", "IC50": "> 50 µM (inactive)"}, {"smiles": "CC(C)Cc1nc2sc3c(NCc4ccccc4)ncnc3c2c2c1COC(C)(C)C2", "IC50": "31.9 µM"}, {"smiles": "O=C(Nc1cccc(-c2nc3ccccc3[nH]2)c1)c1cc2ccccc2oc1=O", "IC50": "22 µM"}, {"smiles": "O=C(Cn1ccc2ccc(N3CCOCC3)nc21)NCc1ccccc1F", "IC50": "> 50 µM (inactive)"}, {"smiles": "COc1ccc(N(CC(=O)NC2CCCCC2)C(=O)c2ccc(-c3ccccc3)[nH]2)cc1OC", "IC50": "11.8 µM"}, {"smiles": "O=S1(=O)CCN(Cc2cccnc2)c2c(F)nc(N3CCOCC3)c(F)c21", "IC50": "> 50 µM (inactive)"}, {"smiles": "CN(C)c1ccc(CCN2CCc3nc4cccnc4cc3C2)cc1", "IC50": "> 50 µM (inactive)"}, {"smiles": "C/C=C(\\Cl)C1=CC(=O)[C@]23C[C@H]2[C@@]2(C)CO[C@@]1(O)[C@@]3(O)O2", "IC50": "> 50 µM (inactive)"}, {"smiles": "CCc1nnc(NC(=O)c2nnn(-c3ccccc3Cl)c2C)s1", "IC50": "> 50 µM (inactive)"}, {"smiles": "Cc1cccc(NC(=O)CN2C(=O)COc3cc(S(=O)(=O)N4CCCC4)ccc32)c1C", "IC50": "20.9 µM"}, {"smiles": "COc1cccc2c1OCC(C(=O)NCc1ccc(F)cc1)=C2", "IC50": "> 50 µM (inactive)"}, {"smiles": "COc1ccc(CCN2COc3c(cc(Cl)c4cccnc34)C2)cc1OC", "IC50": "21.7 µM"}, {"smiles": "COc1cccc(NC(=O)c2nnn(-c3ccccc3)n2)c1", "IC50": "> 50 µM (inactive)"}, {"smiles": "CN1CCN(C(=O)c2ccn(-c3ccc4ccc(-c5cnn(C)c5)cn34)n2)CC1", "IC50": "> 50 µM (inactive)"}, {"smiles": "CCOc1ccc2cc3c(nc2c1)OC(=O)N(Cc1ccc(C)o1)C3", "IC50": "> 50 µM (inactive)"}, {"smiles": "Cc1ccc(-c2nc(Cn3nnc(-c4nc(-c5ccccn5)no4)c3C)c(C)o2)cc1", "IC50": "> 50 µM (inactive)"}, {"smiles": "CC(=O)Nc1ccc(O)c(-c2nc3cc(C)ccc3o2)c1", "IC50": "> 50 µM (inactive)"}, {"smiles": "COc1cc(Cn2cnc3c([nH]c4ccc(Br)cc43)c2=O)cc(OC)c1", "IC50": "12.7 µM"}, {"smiles": "COc1cc(NC(=O)Cn2c(=O)n(-c3ccc(CC(=O)NC4CCCC4)cc3)c(=O)c3ccccc32)cc(OC)c1", "IC50": "> 50 µM (inactive)"}, {"smiles": "COc1cccc(N2CCN(C(=O)Nc3ccc4c(c3)NC(=O)CO4)CC2)c1", "IC50": "22.4 µM"}, {"smiles": "CC(C)Cc1cc(-c2nnc3sc(-c4ccco4)nn23)n[nH]1", "IC50": "> 50 µM (inactive)"}, {"smiles": "CCOC(=O)c1cn(C2CC2)c2cc(N3CCNCC3)c([N+](=O)[O-])cc2c1=O", "IC50": "> 50 µM (inactive)"}]}]}
